From patent US20240415816A1, “ADJUNCTIVE D-CYCLOSERINE AUGMENTATION OF TRANSCRANIAL MAGNETIC STIMULATION (TMS) THERAPY FOR OBSESSIVE COMPULSIVE DISORDER” (MCGRX CORP., priority 2021, published 2024)
Entries after “also recorded” stand apart in the source; their conditions may differ.

Key:
[1] = Motor cortex TMS plasticity: stimulus response curve slope after single and repeated spaced iTBS, randomized double-blind placebo-controlled crossover study; format: in vivo, human; conditions: healthy participants (n=20), +30 and +60 minutes, vs placebo condition
Experimental: Methods: A randomized double-blind placebo-controlled crossover study in healthy participants (n=20) was conducted (NCT05081986). Participants completed the study in two experimental sessions separated. In these experiments, the motor cortex was stimulated twice using TMS intermittent theta burst stimulation (iTBS) with a one-hour interval between interventions. In random order, this was done with placebo or D-cycloserine (100 mg) as adjuvant, and then the converse at least one week later. The participants' surface anatomical markers were registered to a template magnetic resonance brain image using Neuronavigation software (ANT Neuro, Germany) to permit neuronavigation and reliable targeting throughout the experiment. Transcranial magnetic stimulation involved a MagPro X100 system with Cool-B70 figure-eight coil (MagVenture, Denmark). The iTBS protocol consisted of 20 trains of bursts of 3-pulses at 50 Hz, repeated at 5 Hz with an 8 second inter-train interval at 80% RMT. Motor evoked potentials (MEPs) from the first-dorsal interosseous muscle were sampled to describe stimulus response curves using CED Signal (Cambridge, England) before and after iTBS. […] EMG data were analyzed offline using MATLAB via custom written scripts as previously described^123. […]

[2] = Wisconsin Card Sorting Task in the OCD randomized double-blind trial; format: in vivo, human; conditions: iTBS+DCS (100 mg), baseline vs after 4 weeks of treatment, compared with iTBS+Placebo and Sham-iTBS
Experimental: The efficacy of 100 mg DCS as an adjunctive strategy to iTBS to reduce OCD-related cognitive impairment and/or improve cognition in OCD was tested in a randomized double-blind 4-week study described in the Example above. Participants completed the Wisconsin Card Sorting Task at baseline and after 4 weeks of treatment. The preplanned focus was on the percent perseverative errors as an index of executive function, cognitive flexibility and cognitive control.

N[C@@H]1CON=C1O [DCS, D-cycloserine]
change in stimulus response curve (SRC) slope after first (single) iTBS ([1]; DCS 100 mg as adjuvant to iTBS of motor cortex): stable after a single iTBS; also recorded: the initial SRC shift at +30 minutes remains stable at +60 minutes
change in stimulus response curve (SRC) slope after second (repeated spaced) iTBS ([1]; DCS 100 mg, second iTBS 60 minutes after the first): compound with spaced repeated iTBS; also recorded: a further shift in SRC slope in the DCS condition at +30 minutes that was sustained at +60 minutes
percentage of perseverative errors (Wisconsin Card Sorting Task) [2]: significant reductions in the percentage of perseverative errors; also recorded: decrease in the percent perseverative errors
